Results published in patent publication US12440567B2, “Aqueous antibody formulation stabilized by antioxidants for parenteral administration” (AMGEN INC., priority 2007, dated 2025).
One block for each compound: values may come before it.

Key:
Antibody A (IgG1) = experiment: SEC-HPLC aggregation of Antibody A (IgG1) after UV-B exposure; assay type: physicochemical; conditions: Antibody A 1 mg/mL pH 5.00
Method: The SEC-HPLC conditions were as follows: a G3000 TOSOH SWXL column was used and the flowrate was set at 0.5 mL/min. […] For both IgG1 and IgG2, the mobile phase was 80 mM sodium phosphate, 300 mM sodium perchlorate, 10% isopropanol, pH 7.2, and each sample was run for 45 minutes.
For FIG. 5, the anti-streptavidin formulation was prepared having the following characteristics: 1 mg/mL anti-streptavidin mAb (IgG2), 10 mM sodium acetate, 5% sorbitol, and pH 5.00. For FIG. 6, the Antibody A formulation was prepared having the following characteristics: 1 mg/mL Antibody A (IgG1), 10 mM sodium acetate, 9% sucrose, and pH 5.20.

[1] = Color change of the antioxidant upon light; assay type: physicochemical
From the text: P-amino benzoic acid (PABA) has a relatively powerful antioxidant effect.

[2] = PABA: doses as high as 12 grams per day; cited from earlier work
[3] = test system: Antibody B binding to protein A; experiment: Binding of Antibody B to protein A after UV-B exposure of the formulation; conditions: 20 mM additive; pH 6.90 phosphate buffer; 0-24 hours UV-B
Method: For the examples below involving exposure to UVB radiation, each sample was exposed to UVB light (λ≈302 nm) for varying times, using a UVP 8W model UVLMS-38 lamp at 4° C. The formulations were then analyzed using size exclusion chromatography high pressure liquid chromatography (SEC-HPLC). Aggregation (measured via SEC-HPLC analysis) and binding (measured using CM5 gold sensor chips) were measured to determine the effect of the antioxidant on aggregation and bioactivity of the therapeutic protein.
The binding activity of therapeutic protein to a ligand (e.g. to an antibody or binding partner, or, in cases where the therapeutic was an antibody, binding activity to the specific target antigen or to protein A) was determined as follows. […] The therapeutic protein-binding ligand of interest was injected until the desired immobilization level was achieved (above 5000 response units). Three different therapeutic protein-binding ligands were measured—Antibody A's target antigen, Protein A, and D11 (an antibody that binds to erythropoietin). […] The remaining activated groups were blocked with 1.0 M ethanolamine-HCl, pH 8.5.
A standard curve was prepared by using native forms of the therapeutic protein of interest. Native forms of the therapeutic protein were diluted in HBS-EP buffer (pH 7.4) to concentrations between 1 and 5 μg/mL, and then injected on the column, prepared as described above to obtain a standard curve. At the end of each sample run, regeneration buffer was used to wash away any bound therapeutic protein in preparation for subsequent injections.
Various UV-stressed antibody formulations were also diluted in HBS-EP buffer (pH 7.4) to a concentration within the standard curve region, and injected to quantitate the loss of bioactivity to its respective ligand-binding partner.

Antibody A [4] = experiment: Discoloration (yellowing) of Antibody A formulations after UV-B exposure; assay type: physicochemical; conditions: 10 mM additive alone; UV-B light 24 hours
From the text: Discoloration can be assessed visually or by measurement of absorbance at a specific wavelength.
Proteins may also become yellow in color following exposure to UV light.
Pyridoxine is another water soluble B-vitamin (B6) which was studied as a possible antioxidant for preventing protein aggregation caused by UV-B exposure.

EPO = conditions: 10 mM additive, 0.06% H2O2, 24 hours, room temperature
Method: An exemplary protocol for Met-54 oxidation and peroxide assay is as follows. 0.6% hydrogen peroxide is added to 20 mM sodium phosphate solution containing 0.336 m/mL erythropoietin (EPO). Following 24 hours incubation at room temperature, 1 μg of the enzyme catalase is added to quench the excess hydrogen peroxide. 10 μL of 1M Tris solution pH 8.0 is added to 90 μL of EPO solution followed by addition of 2 μL of a 1 mg/mL trypsin solution. Samples are incubated overnight at room temperature. Peptides are separated using reverse phase HPLC (RP-HPLC). Peptides are identified by mass spectrometry (LC-MS). % Met-54 oxidation is calculated using peak areas determined by integration of UV chromatogram from RP-HPLC

Antibody A [5] = conditions: 400 mM proline; 1% H2O2, 2 weeks
Method: Extreme conditions designed to greatly increase free radical generation include exposure to UVA and/or UVB light at 4° C. to 25° C. for 0.5 to 24 hours, or exposure to a 1% solution of hydrogen peroxide at 25° C. for 2 weeks, or exposure to 0.2 mM Fe-EDTA, 0.3% H2O2, and 1 mM ascorbate for 2 hours or longer at 37° C. Samples may alternatively be exposed to light providing an overall illumination of not less than 1.2 million lux hours and an integrated near UV energy of not less than 200 watt hours/square meter.

SMILES: Nc1ccc(C(=O)O)cc1 [PABA, P-amino benzoic acid]
- aggregation of Antibody A (SEC-HPLC) (Antibody A (IgG1); 20 mM PABA, UV 1, 2, or 3 hours): able to significantly reduce the amount of aggregation
- color change upon light [1]: changes to an orange-brown color upon light
- toxicity in humans [2]: without significant toxicity

- yellowing of Antibody A formulation (Antibody A [4]): significant yellowing
SMILES: CSCC[C@H](N)C(=O)O [methionine]
- binding of Antibody B to protein A after UV-B exposure [3]: not able to prevent this UV-B induced degradation
- amount of Met-54 oxidation (EPO): able to reduce the amount of EPO oxidation

- protection of Antibody A from UV-B induced degradation (aggregation) (Antibody A (IgG1); 200 mM proline, UV 15 minutes): weak effect
- prevention of Antibody A aggregation caused by peroxide (Antibody A [5]): stronger effect
SMILES: O=C(O)[C@@H]1CCCN1 [proline]
